Results on 21 molecules are retold here after US20220213030A1, “AMINOGUANIDINE HYDRAZONES AS RETROMER STABILIZERS USEFUL FOR TREATING NEUROLOGICAL DISEASES” (OSPEDALE SAN RAFFAELE SRL, priority 2019, published 2022).

For one test, the system named is LC3. As to the kind of experiment: pHfluorin-LC3 autophagy assay in Neuro2a clone 7B11. The conditions noted are these: BafilomycinA1 200 nM, Torin-1 250 nM, 48 hours. Format: cell-based, mouse. The method, then:
Besides increasing the functionality of lysosomes we hypothesised that compound 2a could also enhance the autophagy system. Therefore we used a pHfluorin-LC3-based assay to monitor the autophagy process in living Neuro2a cells. We have established in our laboratory a Neuro2a stable cell clone (7B11) that expresses the Microtubule-associated protein 1A/1B-light chain 3 (LC3) coupled with the ph-sensitive GFP/phlourin.
Neuro2a-7B11 cells were incubated with increasing concentrations of compound 2a (0.1-100 μM) as well as with the control molecules Bafilomycin Al and Torin-1. After 48 hours the GFP/phluorin signal, which is ph-sensitive, was measured by flow cytometry and fold changes calculated over untreated cells.
Autophagy assay were done using a stable Neuro2a cell clone expressing the pHluorin-mKate2-tagged human LC3 plasmids, Cell clones were generated according our published methods (Mazzocchi 2016). Upon transfection, cells were selected by 400 μg/mL G418 Disulfate Salt Solution (Sigma-Aldrich, St. Louis, Mo.) and further cloned by limiting dilution. […] Neuro2a 7B11 cells were treated with Compound 2a (0.1-100 μM) for 48 hours then MFI levels of the pHfluorin were measured in living cells by flow cytometry.

The test system of another test is TNFα. As to the kind of experiment: LPS-mediated TNFα release in Raw 264.7 cells (ELISA). Format: cell-based, murine. The conditions noted are these: 10 μM for 1 hour, then LPS 100 ng/ml, 4 hours. From the text:
We observed that the molecular structure featuring compound 2a is reminiscent of the patented compound CNI-1493 (N,N′-bis [3,5 -bis [1(aminoiminomethyl) hydrazono]ethyl]phenyl]decanediamide tetrahydrochloride (CAS Reg. No. 164301-51-3)), (FIG. 16A). CNI-1493 inhibits macrophage activation in the animal model of Multiple Sclerosis producing a general amelioration of clinical and pathological outcomes of these mice (Martiney, Rajan et al. 1998). […] CNI-1493 suppresses the production of pro-inflammatory cytokines, belonging to the plethora of detrimental signals that accompany neurodegenerative processes in several disorders. […] We followed experimental procedures published by Bianchi and colleagues that describe the ability of CNI-1493 to blunt the production of this cytokine (Bianchi, Bloom et al. 1996). Cells were incubated with CNI-1493 (10 μM) or with compound 2a (10 μM) for 1 hour and then we added the LPS (100 ng/ml) to media. We next collected supernatants (4 hours after the LPS stimulation) form cells for the evaluation of TNFα levels.
Raw 264.7 cells (10^5/well) were treated with compound 2a, CNI-1493 or vehicle for 1 hour then we applied LPS (100 ng/ml) and supernatants were collected after 4 hours. […] Concentrations of TNFα were calculated according to a standard curve and expressed as nanograms per […]. […]
(An ELISA detects its analyte on a solid surface through an enzyme-linked reagent.)

In a further test the test system is G93A mice. The conditions noted are these: mouse, in vivo; cited from earlier work.
The subject of test [1] is TNFα, IL-1(3, IL-6 and macrophage inflammatory proteins 1α and 1β). As to conditions: cited from earlier work.
Another test concerns the target VPS35 (Mus musculus, UniProt Q9EQH3+Q9QZ88). The test is described as follows: VPS35 levels in Neuro2a cells by Western blot (screening of amino guanidine hydrazones). Format: cell-based. Set-up: endogenous in cells; host or cells: Neuro2a. As to conditions: 48 hours; for VPS35 levels (in words): compounds at 10 μM; for Mean fold changes (VPS35 levels normalized on β-Actin, over vehicle-treated cells): 10 μM, independent cultures n=3. As for the experimental part:
To functionally screen the majority of synthetized amino guanidine hydrazones of the invention and determine their effects on the retromer complex, we incubated Neuro2a cells with each synthetized molecule at the concentration of 10 μM.
The test was executed in triplicate for each tested compound of the invention, cells lysates were established after 48 hours' incubation, and levels of VPS35 were normalized on the housekeeping gene β-Actin by Western blot. We observed a preliminary SAR among the compounds.
Fold changes are calculated over normalized VPS35 levels measured in vehicle-treated cells.
Neuro2a cells were seeded on 12 wells multiwell at the concentration of 100 000 cells/well. Cells were incubated with each compound, including the standard R55, at 10 μM for 48 hours. Cells were then washed in PBS 1× and lysed in a buffer containing Tris-HCl 10 mM pH8, EDTA 1 mM pH8, NaCl 100 mM, NP40 1%, with protease inhibitor cocktail (Sigma) 1×. Using a cell scraper total lysates were collected from each well, quantified with BCA (BCA protein assay, Thermofisher). Five μg were resolved on precast 10% acrylamide gel (Biorad). Proteins were transferred to a PVDF membrane (Millipore) and western blot were performed using the following antibodies: goat αVPS35 (1:1000), mouse α-βActin (1:10000). Detection of proteins was obtained by a chemiluminescence detection kit (PerkinElmer).

Test [2] has as its system Neuro2a cells receiving H2O2. The test is described as follows: H2O2-induced cell death in Neuro2a cells. Format: cell-based, mouse. As to conditions: compound 10 μM, H2O2 200 μM, 48 hours. As for the experimental part: We tested the specificity of compound 2a in an assay based on H2O2-induced chromosomal breaks that lead to DNA fragmentation and cell death. In principle such DNA lesions are the cause of cell death according to a process that is not influenced by the retromer. Thus, our leads should not be able to modulate rates cell survival in Neuro2a cells receiving H2O2. We incubated Neuro2a cells with 200 μM of H2O2 along with compounds 2a, 2c, 2d and 2g (10 μM).
Cell survival experiments were run on 96-well plates using Cell Counting Kit-8 (CCK8) survival kit (96992-Sigma) according the manufacturer's recommendations. Compound 2a cytotoxicity was tested on Neuro2a cells receiving increasing amount of compound 2a (1, 10, 50, 100, 200, 500 and 1000 μM) for 48 hours.

“Also recorded” adds a separate entry of the source.

For `CO/C1=C\C(C)=C\[C@@H](C)[C@@H](O)[C@@H](C)C/C(C)=C/C=C/[C@H](OC)[C@@H]([C@@H](C)[C@@H](O)[C@H](C)[C@@]2(O)C[C@@H](O)[C@H](C)[C@@H](C(C)C)O2)OC1=O` [Bafilomycin A1, reference compound], the “GFP/phluorin fluorescence, control molecules” value in the test on LC3 is “augmented fluorescence”. For `C/C(=N\N=C(N)N)c1cc(NC(=O)CCCCCCCCC(=O)Nc2cc(/C(C)=N/N=C(N)N)cc(/C(C)=N/N=C(N)N)c2)cc(/C(C)=N/N=C(N)N)c1.Cl.Cl.Cl.Cl` [CNI-1493, reference compound], in the test with TNFα, the “TNFα levels in supernatants” value is “significantly inhibited the expression of this cytokine; also recorded: significantly blunted TNFα expression”. Also, the “onset of the disease and lifespan” value in the test with G93A mice is “delayed the onset of the disease and increased the lifespan of mice”. In addition, in test [1], the “expression of pro-inflammatory cytokines” value is “inhibits the expression”. Moreover, the “VPS35 levels (in words)” value on VPS35 is “did not increased”; at VPS35 (listed as CNI-1494), “does not modulate VPS35”. Turning to `N=C(N)NN=Cc1cccc(C=NNC(=N)N)c1Br` [Compound 2b, 2-Bromo-1,3-bis-aminoguanidine phenyl hydrazone], the “Mean fold changes (VPS35 levels normalized on β-Actin, over vehicle-treated cells)” value at VPS35 is 1.300. As to `N=C(N)NN=Cc1ccc(Br)c(C=NNC(=N)N)c1` [Compound 2c, 4-Bromo-1,3-bis-amino guanidine phenyl hydrazone], the “cell survival with H2O2 with or without compound” value in test [2] is “did not result in any significant difference”. Besides, the “Mean fold changes (VPS35 levels normalized on β-Actin, over vehicle-treated cells)” value on VPS35 was determined as 1.617. As to `N=C(N)NN=Cc1ccc(O)c(C=NNC(=N)N)c1` [Compound 2d, 1-Hydroxy-2,4-bis-aminoguanidine phenyl hydrazone], the “cell survival with H2O2 with or without compound” value in test [2] was “did not result in any significant difference”. Moreover, on VPS35, the “Mean fold changes (VPS35 levels normalized on β-Actin, over vehicle-treated cells)” value turned out to be 2.477. Turning to `COc1ccc(C=NNC(=N)N)cc1C=NNC(=N)N` [Compound 2e, 1-Methoxy-2,4-bis-amino guanidine phenyl hydrazone], on VPS35, the “Mean fold changes (VPS35 levels normalized on β-Actin, over vehicle-treated cells)” value came out at 2.070.

Consider `CCCCOc1ccc(C=NNC(=N)N)cc1C=NNC(=N)N` [Compound 2f, 1-(n-Butoxy)-2,4-bis-aminoguanidine phenyl hydrazone], for which the “Mean fold changes (VPS35 levels normalized on β-Actin, over vehicle-treated cells)” value at VPS35 is 1.415. `Cc1cc(C=NNC(=N)N)cc(C=NNC(=N)N)c1` [Compound 2g, 5-Methyl-1,3-bis-aminoguanidine phenyl hydrazone]: the “cell survival with H2O2 with or without compound” value in test [2] was “did not result in any significant difference”. For the same molecule, the “Mean fold changes (VPS35 levels normalized on β-Actin, over vehicle-treated cells)” value on VPS35 is reported as 2.080. For the molecule `COc1cc(C=NNC(=N)N)cc(C=NNC(=N)N)c1` [Compound 2i, 1-Methoxy-3,5-bis-aminoguanidine phenyl hydrazone], the “Mean fold changes (VPS35 levels normalized on β-Actin, over vehicle-treated cells)” value at VPS35 came out at 1.310. As for `CC(=O)Nc1cc(C=NNC(=N)N)cc(C=NNC(=N)N)c1` [Compound 2l, 1-Acetamido-3,5-bis-aminoguanidine phenyl hydrazone], the “Mean fold changes (VPS35 levels normalized on β-Actin, over vehicle-treated cells)” value on VPS35 was 1.660. For the molecule `Cc1ccc(C(=O)Nc2cc(C=NNC(=N)N)cc(C=NNC(=N)N)c2)cc1` [Compound 2m, 1-p-Tolylamido-3,5-bis-aminoguanidine phenyl hydrazone], on VPS35, the “Mean fold changes (VPS35 levels normalized on β-Actin, over vehicle-treated cells)” value came to 0.974. Still for that read-out and setting: with `CS(=O)(=O)Nc1cc(C=NNC(=N)N)cc(C=NNC(=N)N)c1` [Compound 2n, 1-Methylsulfonamido-3,5-bis-aminoguanidine phenyl hydrazone] the figure was 1.280; with `Cc1ccc(S(=O)(=O)Nc2cc(C=NNC(=N)N)cc(C=NNC(=N)N)c2)cc1` [Compound 2o, 1-p-Tolylsulfonamido-3,5-bis-aminoguanidine phenyl hydrazone], 1.501. As for `COC(=O)c1cc(C=NNC(=N)N)cc(C=NNC(=N)N)c1` [Compound 2p, 1-Carbomethoxy-3,5-bis-amino guanidine phenyl hydrazone], the “Mean fold changes (VPS35 levels normalized on β-Actin, over vehicle-treated cells)” value at VPS35 is given as 1.582. Still for that read-out and setting: in the case of `N=C(N)NN=Cc1cc(C=NNC(=N)N)cc(C(=O)N2CCN(c3ccccc3)CC2)c1` [Compound 2q, 5-(N4-phenylpiperazinyl)carboxamido-3,5-bis-amino guanidine phenyl hydrazone] it was 1.784. Still for that read-out and setting: in the case of `N=C(N)NN=Cc1cc(C=NNC(=N)N)cc(C=NNC(=N)N)c1` [Compound 2r, 1-3,5-tris-amino guanidine phenyl hydrazone] it was 1.154; in that of `N=C(NN=Cc1cccc(C=NNC(=N)N2CCCC2)c1)N1CCCC1` [Compound 2v, 1,3-bis-(N3-pyrrolidinyl) guanidine phenyl hydrazone], 1.978; in that of `CCCCNC(=N)NN=Cc1cc(C=NNC(=N)NCCCC)cc(NC(=O)c2ccc(C)cc2)c1` [Compound 2w, 1-p-Tolylamido-3,5-bis-(N3-n-butylamino) guanidine phenyl hydrazone], 0.625.

On to `C(=NNc1nc2ccccc2[nH]1)c1cccc(C=NNc2nc3ccccc3[nH]2)c1` [Compound 2z, 1,3-Bis-(N2N3-benzimidazolidinyl) guanidine phenyl hydrazone], for which the “Mean fold changes (VPS35 levels normalized on β-Actin, over vehicle-treated cells)” value at VPS35 is 1.105.

For `C/C(=N\NC(=N)N)c1cccc(/C(C)=N/NC(=N)N)c1` [Compound (VIII), 1′,3′-Dimethyl-1,3-bis-aminoguanidine phenyl hydrazone, reference compound], the “Mean fold changes (VPS35 levels normalized on β-Actin, over vehicle-treated cells)” value on VPS35 worked out at 0.600. For the molecule `CCC(=O)N1CCN(c2ccc(-n3c(=O)ccc4cnc5ccc(-c6cnc7ccccc7c6)cc5c43)cc2C(F)(F)F)CC1` [Torin 1, reference compound], the “GFP/phluorin fluorescence, control molecules” value with LC3 is reported as “significantly dampened”.
